Laboratory results as given in patent US12281079B2, “Quinoline derivatives, processes for their preparation and uses thereof for the treatment of cancer” (Lead Discovery Center GmbH, priority 2019, dated 2025).

These compounds were tested against mitochondrial RNA polymerase (POLRMT) (Mus musculus, UniProt Q8BKF1) (assay: Homogeneous TR-FRET assay for mitochondrial transcription activity). Settings: homogeneous TR-FRET assay according to Example 4.
mitochondrial RNA polymerase (POLRMT), sequence (Q8BKF1 42-1207): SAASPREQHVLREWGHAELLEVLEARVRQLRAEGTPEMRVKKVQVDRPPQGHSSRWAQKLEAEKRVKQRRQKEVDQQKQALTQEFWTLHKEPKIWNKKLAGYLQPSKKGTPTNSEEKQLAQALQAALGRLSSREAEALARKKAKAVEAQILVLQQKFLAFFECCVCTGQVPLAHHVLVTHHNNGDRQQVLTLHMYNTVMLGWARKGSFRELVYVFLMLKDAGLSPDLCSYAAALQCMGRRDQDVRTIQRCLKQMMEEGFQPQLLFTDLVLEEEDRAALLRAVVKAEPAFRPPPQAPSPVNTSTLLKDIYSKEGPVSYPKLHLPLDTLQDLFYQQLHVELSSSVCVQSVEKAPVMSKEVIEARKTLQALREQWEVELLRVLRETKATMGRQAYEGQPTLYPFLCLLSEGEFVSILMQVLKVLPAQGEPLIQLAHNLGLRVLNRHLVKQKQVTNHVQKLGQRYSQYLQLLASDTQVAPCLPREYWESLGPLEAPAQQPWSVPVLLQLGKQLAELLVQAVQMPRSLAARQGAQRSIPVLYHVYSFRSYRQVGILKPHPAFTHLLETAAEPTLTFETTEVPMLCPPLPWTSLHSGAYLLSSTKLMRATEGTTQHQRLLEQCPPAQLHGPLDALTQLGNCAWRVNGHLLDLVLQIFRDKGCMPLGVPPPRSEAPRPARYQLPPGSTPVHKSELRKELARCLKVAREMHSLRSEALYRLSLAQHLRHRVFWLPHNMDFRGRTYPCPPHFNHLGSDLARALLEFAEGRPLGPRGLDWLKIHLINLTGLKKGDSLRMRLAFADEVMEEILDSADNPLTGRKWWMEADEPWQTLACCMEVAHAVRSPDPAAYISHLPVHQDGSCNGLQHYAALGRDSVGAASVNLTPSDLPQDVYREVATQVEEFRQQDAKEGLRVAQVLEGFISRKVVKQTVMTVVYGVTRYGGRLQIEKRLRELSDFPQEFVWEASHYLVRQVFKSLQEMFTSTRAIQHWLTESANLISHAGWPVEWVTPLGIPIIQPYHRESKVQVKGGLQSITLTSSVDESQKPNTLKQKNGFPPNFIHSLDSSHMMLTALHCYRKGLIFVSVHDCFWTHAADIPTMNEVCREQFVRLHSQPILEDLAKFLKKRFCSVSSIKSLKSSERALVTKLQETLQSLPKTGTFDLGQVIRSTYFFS
Format: biochemical
Excerpt: The TR-FRET assay was basically conducted as described in WO2016/193231A1, especially as described in example 1 (hereby incorporated by reference). With respect to the back ground of the mitochondrial transcription it is referred to Falkenberg et al. (2002) and Posse et al. (Posse et al., 2015). The method monitors the activity of mitochondrial RNA-polymerase via detection of the formation of its product, a 407 bp long RNA sequence. Detection of the product is facilitated by hybridization of two DNA-oligonucleotide probes to specific and adjacent sequences within the RNA product sequence. Upon annealing of the probes, two fluorophores that are coupled directly to an acceptor nucleotide probe (ATT0647, 5′) or introduced via a coupled streptavidin interacting with a biotinylated donor nucleotide probe on the other side (Europium cryptate, 3′) are brought into sufficient proximity to serve as a fluorescence-donor-acceptor pair as generally described in Walters and Namchuk (2003). Thus, a FRET signal at 665 nm is generated upon excitation at 340 nm.
Briefly, the protocol described here was applied for screening and activity determination in a low-volume 384-well microtiter plate with non-binding surface. For high-throughput application in the 1536-well microtiter plate format, volumes of the reagent mixes were adjusted, maintaining the volumetric ratio. Proteins POLRMT (NM_172551.3), TFAM (NM_009360.4) and TFB2M (NM_008249.4) were diluted from their stocks to working concentrations of 150 nM, 1.8 μM and 330 nM respectively, in a dilution buffer containing 100 mM Tris-HCl pH 8.0, 200 mM NaCl, 10% (v/v) glycerole, 2 mM glutathione (GSH), 0.5 mM EDTA and 0.1 mg/mL BSA. Protein dilutions and template DNA, comprising a pUC18 plasmid encoding the mitochondrial light strand promoter, restriction linearized proximal to the promoter 3′-end (pUC-LSP), were mixed at the twofold final assay-concentration in a reaction buffer, containing 10 mM Tris-HCl pH 7.5, 10 mM MgCl2, 40 mM NaCl, 2 mM GSH, 0.01% (w/v) Tween-20 and 0.1 mg/mL BSA.
5 μL of this mix were dispensed, depending on the chosen microtiter plate format, using multi-channel pipettes or a Multidrop® dispenser (Thermo Fisher Scientific, Waltham Mass.) into the wells of a microtiter plate and incubated at room temperature (rt) for 10 min. Chemical compounds under scrutiny in the assay were applied using contact-free acoustic droplet-dispensing (Echo520® Labcyte Inc., Sunnyvale Calif.) from 10 mM compound stocks in 100% DMSO, to a final concentration of 10 μM or in serial dilution series of the required concentration range. Equal amounts of DMSO without any compound were added to positive control samples, followed by an incubation step at rt for 10 min.
The enzymatic reaction was started by the addition of 5 μL of a mix of dNTPs in reaction buffer to a final concentration of 500 μM each. No nucleotide mix was added to negative control samples. The content of the wells was mixed using a VarioTeleshaker™ (Thermo Fisher Scientific, Waltham Mass.) at 1500 rpm for 45 sec after which the microtiter plate was centrifuged at 500×g for 1 min. The samples were incubated for 2 h at rt with humidity control to avoid evaporation. The detection reagents were prepared in a buffer that was composed, such that the enzymatic reaction was terminated due to chelating of Mg-ions and increased ionic strength, containing 50 mM Tris-HCl pH 7.5, 700 mM NaCl, 20 mM EDTA, and 0.01% (w/v) Tween-20. Importantly Eu-cryptate-coupled streptavidin had to be preincubated with a 100-fold molar excess of a random sequence oligonucleotide for 10 min at rt in the dark to block unspecific binding of single stranded RNA to the protein. Subsequently, the blocked streptavidin(-Eu) was mixed with the DNA-probes on ice and kept away from light until use. […]
In the case of `CC(Oc1ccc2c(-c3ccccc3Cl)ccnc2c1)C(=O)N1CCC[C@H](C(=O)O)C1` (mixture of isomers) [Compound 23, rac-(3S)-1-[2-[[4-(2-chlorophenyl)-7-quinolyl]oxy]propanoyl]piperidine-3-carboxylic acid], the IC50 is reported as 0.02 to 0.1 µM. In the case of `CC(C)NC(=O)C(C)Oc1ccc2c(-c3ccc(F)cc3Cl)ccnc2n1` (racemic) [Compound 109, 2-[[5-(2-chloro-4-fluoro-phenyl)-1,8-naphthyridin-2-yl]oxy]-N-isopropyl-propanamide], the IC50 is reported as 1 to 10 µM. Compound `CCC(Oc1ccc2c(-c3ccccc3Cl)ccnc2c1)C(=O)N1CCC[C@H](CC(=O)O)C1` (mixture of isomers) [Compound 140, 2-[rac-(3R)-1-[2-[[4-(2-chlorophenyl)-7-quinolyl]oxy]butanoyl]-3-piperidyl]acetic acid] has an IC50 of 0.02 to 0.1 µM. For `Cc1cccc(C)c1-c1ccnc2cc(O[C@H](C)C(=O)N3CCCC(CS(N)(=O)=O)C3)ccc12` (mixture of isomers) [Compound 190, [1-[rac-(2R)-2-[[4-(2,6-dimethylphenyl)-7-quinolyl]oxy]propanoyl]-3-piperidyl]methanesulfonamide], the IC50 was under 0.02 µM. In the case of `CCOC(=O)C[C@H]1CCCN(C(=O)[C@@H](C)Oc2ccc3c(-c4c(C)cccc4C)ccnc3c2)C1` [Compound 6, ethyl 2-[(3R)-1-[(2R)-2-[[4-(2,6-dimethylphenyl)-7-quinolyl]oxy]propanoyl]-3-piperidyl]acetate], the IC50 is reported as under 0.02 µM. For `COC(=O)C[C@H]1CCN(C(=O)[C@@H](C)Oc2ccc3c(-c4ccc(F)cc4Cl)ccnc3c2)C1` [Compound 37, methyl 2-[(3R)-1-[(2R)-2-[[4-(2-chloro-4-fluoro-phenyl)-7-quinolyl]oxy]propanoyl]pyrrolidin-3-yl]acetate], the IC50 was 0.1 to 1 µM. In the case of `Cc1ccccc1-c1cc(Cl)nc2cc(O[C@H](C)C(=O)O)ccc12` [Compound 43, (2R)-2-[[2-chloro-4-(o-tolyl)-7-quinolyl]oxy]propanoic acid], the IC50 is reported as 0.1 to 1 µM. Work on `C[C@@H](Oc1ccc2c(-c3ccc(F)cc3Cl)ccnc2c1)C(=O)O` [Compound 44, (R)-2-((4-(2-chloro-4-fluorophenyl)quinolin-7 yl)oxy)propanoic acid] yielded an IC50 of 0.1 to 1 µM. Work on `CCOC(=O)c1ccc(NC(=O)[C@@H](C)Oc2ccc3c(-c4ccc(F)cc4Cl)ccnc3c2)cc1` [Compound 51, ethyl 4-[[(2R)-2-[[4-(2-chloro-4-fluoro-phenyl)-7-quinolyl]oxy]propanoyl]amino]benzoate] yielded an IC50 of 0.1 to 1 µM. For `COC(=O)C1CC(NC(=O)[C@@H](C)Oc2ccc3c(-c4ccc(F)cc4Cl)ccnc3c2)C1` (stereo partly drawn) [Compound 54, methyl 3-[[(2R)-2-[[4-(2-chloro-4-fluoro-phenyl)-7-quinolyl]oxy]propanoyl]amino]cyclobutanecarboxylate], the IC50 was 0.1 to 1 µM. `CCOC(=O)C1CCN(C(=O)[C@@H](C)Oc2ccc3c(-c4ccc(F)cc4Cl)ccnc3c2)CC1` [Compound 58, ethyl 1-[(2R)-2-[[4-(2-chloro-4-fluoro-phenyl)-7-quinolyl]oxy]propanoyl]piperidine-4-carboxylate] gave an IC50 of 0.1 to 1 µM. `C[C@@H](Oc1ccc2c(-c3cccc(F)c3Cl)ccnc2c1)C(=O)N1CCC[C@H](CC(=O)O)C1` [Compound 65, 2-[(3R)-1-[(2R)-2-[[4-(2-chloro-3-fluoro-phenyl)-7-quinolyl]oxy]propanoyl]-3-piperidyl]acetic acid] gave an IC50 of 0.02 to 0.1 µM. With `COC(=O)C[C@@H]1CCN(C(=O)[C@@H](C)Oc2ccc3c(-c4ccc(F)cc4Cl)ccnc3c2)C1` [Compound 67, methyl 2-[(3S)-1-[(2R)-2-[[4-(2-chloro-4-fluoro-phenyl)-7-quinolyl]oxy]propanoyl]pyrrolidin-3-yl]acetate] the IC50 was 0.1 to 1 µM. `COC(=O)[C@@H]1CCCN(C(=O)[C@@H](C)Oc2ccc3c(-c4ccc(F)cc4Cl)ccnc3c2)C1` [Compound 71, methyl (3R)-1-[(2R)-2-[[4-(2-chloro-4-fluoro-phenyl)-7-quinolyl]oxy]propanoyl]piperidine-3-carboxylate] showed an IC50 of 0.1 to 1 µM.
